Measured values taken from patent US20250230193A1, “CYCLIC COMPOUND HAVING SELECTIVE KRAS INHIBITORY EFFECT ON HRAS AND NRAS” (CHUGAI SEIYAKU KABUSHIKI KAISHA, priority 2022, published 2025).
Where a SMILES comes first, the peptide text is derived from it. Bridges are numbered along the chain shown (N, C = ends). [ ]: non-standard residue; d: D form. The star is where a group is joined. hPhe(3-Cl-4-CF3) = N[C@@H](CCc1ccc(C(F)(F)F)c(Cl)c1)C(=O)O; NPrPhe(4-CF3) = CCCN[C@@H](Cc1ccc(C(F)(F)F)cc1)C(=O)O; NMeGly(cPent) = CN[C@H](C(=O)O)C1CCCC1; Pro(4,4-F2) = O=C(O)[C@@H]1CC(F)(F)CN1; Hyp = O=C(O)[C@@H]1C[C@@H](O)CN1; NMeD = CN[C@@H](CC(=O)O)C(=O)O; NMeL = CN[C@@H](CC(C)C)C(=O)O; Morpholide = C1CN(*)CCO1; NMeA = CN[C@@H](C)C(=O)O; Ac5c = NC1(C(=O)O)CCCC1; Aze = O=C(O)[C@@H]1CCN1; Ac4c = NC1(C(=O)O)CCC1; NEtG = CCNCC(=O)O; Sar = CNCC(=O)O

How the values were obtained:
[1] = biological target: GDP-bound NRAS wild-type protein (Homo sapiens, UniProt P01111); assay: Binding to NRAS by surface plasmon resonance (SPR), Single Cycle Kinetics; details: KD ratio NRAS/KRAS, SPR
[2] = biological target: GDP-bound HRAS wild-type protein (Homo sapiens, UniProt P01112); assay: Binding to HRAS by surface plasmon resonance (SPR), Single Cycle Kinetics; details: KD ratio HRAS/KRAS, SPR
Sequence of GDP-bound HRAS wild-type protein (P01112 whole entry): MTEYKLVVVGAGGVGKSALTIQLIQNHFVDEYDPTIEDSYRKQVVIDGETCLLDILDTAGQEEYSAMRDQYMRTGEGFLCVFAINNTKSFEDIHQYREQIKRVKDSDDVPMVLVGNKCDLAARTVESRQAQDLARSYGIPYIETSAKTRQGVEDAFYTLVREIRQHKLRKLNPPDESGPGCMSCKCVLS

Sequence of GDP-bound NRAS wild-type protein (P01111 whole entry): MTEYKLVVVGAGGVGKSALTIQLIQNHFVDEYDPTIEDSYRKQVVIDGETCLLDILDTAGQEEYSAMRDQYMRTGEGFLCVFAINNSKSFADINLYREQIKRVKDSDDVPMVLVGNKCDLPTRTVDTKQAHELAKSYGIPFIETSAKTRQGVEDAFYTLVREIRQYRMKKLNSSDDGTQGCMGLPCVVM

With `CCCN1C(=O)CN(C)C(=O)CN(CC)C(=O)[C@H]([C@@H](C)CC)NC(=O)[C@H](CC(C)C)N(C)C(=O)C[C@@H](C(=O)N2CCOCC2)N(C)C(=O)[C@H](C2CCCC2)N(C)C(=O)C2(CCCC2)NC(=O)[C@@H]2CC(F)(F)CN2C(=O)[C@H](CCc2ccc(C(F)(F)F)c(Cl)c2)NC(=O)CN(C)C(=O)[C@@H]1Cc1ccc(C(F)(F)F)cc1` [PP0399] ([NMeL]I[NEtG][Sar][NPrPhe(4-CF3)][Sar][hPhe(3-Cl-4-CF3)][Pro(4,4-F2)][Ac5c][NMeGly(cPent)][NMeD]-Morpholide; lactam N-11) the “NRAS/KRAS (ratio of KD for GDP-bound NRAS wild-type to KD for KRAS)” value [1] was “B (a compound having 3 or more and less than 10 is denoted as B)” and the “HRAS/KRAS (ratio of KD for GDP-bound HRAS wild-type to KD for KRAS)” value [2] was “C (A compound having a KD ratio of 0.1 or more and less than 3 is denoted as C)”.
`CCCN1C(=O)CN(C)C(=O)CN(CC)C(=O)[C@H]([C@@H](C)CC)NC(=O)[C@H](CC(C)C)N(C)C(=O)C[C@@H](C(=O)N2CCOCC2)N(C)C(=O)[C@H](C2CCCC2)N(C)C(=O)C2(CCC2)NC(=O)[C@@H]2CC(F)(F)CN2C(=O)[C@H](CCc2ccc(C(F)(F)F)c(Cl)c2)NC(=O)CN(C)C(=O)[C@@H]1Cc1ccc(C(F)(F)F)cc1` [PP0400] ([NMeL]I[NEtG][Sar][NPrPhe(4-CF3)][Sar][hPhe(3-Cl-4-CF3)][Pro(4,4-F2)][Ac4c][NMeGly(cPent)][NMeD]-Morpholide; lactam N-11) was tested, and the “NRAS/KRAS (ratio of KD for GDP-bound NRAS wild-type to KD for KRAS)” value [1] was “B (a compound having 3 or more and less than 10 is denoted as B)” and the “HRAS/KRAS (ratio of KD for GDP-bound HRAS wild-type to KD for KRAS)” value [2] was “B (a compound having 3 or more and less than 10 is denoted as B)”.
With `CCCN1C(=O)CN(C)C(=O)CN(CC)C(=O)[C@H]([C@@H](C)CC)NC(=O)[C@H](CC(C)C)N(C)C(=O)C[C@@H](C(=O)N2CCOCC2)N(C)C(=O)[C@H](C2CCCC2)N(C)C(=O)C2(CCC2)NC(=O)[C@@H]2C[C@@H](OCC)CN2C(=O)[C@H](CCc2ccc(C(F)(F)F)c(Cl)c2)NC(=O)CN(C)C(=O)[C@@H]1Cc1ccc(C(F)(F)F)cc1` [PP0401] ([NMeL]I[NEtG][Sar][NPrPhe(4-CF3)][Sar][hPhe(3-Cl-4-CF3)][Hyp](Et)[Ac4c][NMeGly(cPent)][NMeD]-Morpholide; lactam N-11) the “NRAS/KRAS (ratio of KD for GDP-bound NRAS wild-type to KD for KRAS)” value [1] was “B (a compound having 3 or more and less than 10 is denoted as B)” and the “HRAS/KRAS (ratio of KD for GDP-bound HRAS wild-type to KD for KRAS)” value [2] was “B (a compound having 3 or more and less than 10 is denoted as B)”.
With `CCCN1C(=O)CN(C)C(=O)[C@@H]2CCN2C(=O)[C@H]([C@@H](C)CC)NC(=O)[C@H](CC(C)C)N(C)C(=O)C[C@@H](C(=O)N2CCOCC2)N(C)C(=O)[C@H](C2CCCC2)N(C)C(=O)C2(CCC2)NC(=O)[C@@H]2CCCN2C(=O)[C@H](CCc2ccc(C(F)(F)F)c(Cl)c2)NC(=O)CN(C)C(=O)[C@@H]1Cc1ccc(C(F)(F)F)cc1` [PP0402] ([NMeL]I[Aze][Sar][NPrPhe(4-CF3)][Sar][hPhe(3-Cl-4-CF3)]P[Ac4c][NMeGly(cPent)][NMeD]-Morpholide; lactam N-11) the “NRAS/KRAS (ratio of KD for GDP-bound NRAS wild-type to KD for KRAS)” value [1] was “B (a compound having 3 or more and less than 10 is denoted as B)” and the “HRAS/KRAS (ratio of KD for GDP-bound HRAS wild-type to KD for KRAS)” value [2] was “C (A compound having a KD ratio of 0.1 or more and less than 3 is denoted as C)”.
With `CCCN1C(=O)CN(C)C(=O)[C@@H]2CCN2C(=O)[C@H]([C@@H](C)CC)NC(=O)[C@H](CC(C)C)N(C)C(=O)C[C@@H](C(=O)N2CCOCC2)N(C)C(=O)[C@H](C2CCCC2)N(C)C(=O)C2(CCCC2)NC(=O)[C@@H]2CC(F)(F)CN2C(=O)[C@H](CCc2ccc(C(F)(F)F)c(Cl)c2)NC(=O)CN(C)C(=O)[C@@H]1Cc1ccc(C(F)(F)F)cc1` [PP0403] ([NMeL]I[Aze][Sar][NPrPhe(4-CF3)][Sar][hPhe(3-Cl-4-CF3)][Pro(4,4-F2)][Ac5c][NMeGly(cPent)][NMeD]-Morpholide; lactam N-11) the “NRAS/KRAS (ratio of KD for GDP-bound NRAS wild-type to KD for KRAS)” value [1] was “B (a compound having 3 or more and less than 10 is denoted as B)” and the “HRAS/KRAS (ratio of KD for GDP-bound HRAS wild-type to KD for KRAS)” value [2] was “B (a compound having 3 or more and less than 10 is denoted as B)”.
With `CCCN1C(=O)CN(C)C(=O)[C@@H]2CCN2C(=O)[C@H]([C@@H](C)CC)NC(=O)[C@H](CC(C)C)N(C)C(=O)C[C@@H](C(=O)N2CCOCC2)N(C)C(=O)[C@H](C2CCCC2)N(C)C(=O)C2(CCC2)NC(=O)[C@@H]2CC(F)(F)CN2C(=O)[C@H](CCc2ccc(C(F)(F)F)c(Cl)c2)NC(=O)CN(C)C(=O)[C@@H]1Cc1ccc(C(F)(F)F)cc1` [PP0404] ([NMeL]I[Aze][Sar][NPrPhe(4-CF3)][Sar][hPhe(3-Cl-4-CF3)][Pro(4,4-F2)][Ac4c][NMeGly(cPent)][NMeD]-Morpholide; lactam N-11) the “NRAS/KRAS (ratio of KD for GDP-bound NRAS wild-type to KD for KRAS)” value [1] was “B (a compound having 3 or more and less than 10 is denoted as B)” and the “HRAS/KRAS (ratio of KD for GDP-bound HRAS wild-type to KD for KRAS)” value [2] was “C (A compound having a KD ratio of 0.1 or more and less than 3 is denoted as C)”.
`CCCN1C(=O)CN(C)C(=O)[C@@H]2CCN2C(=O)[C@H]([C@@H](C)CC)NC(=O)[C@H](CC(C)C)N(C)C(=O)C[C@@H](C(=O)N2CCOCC2)N(C)C(=O)[C@H](C2CCCC2)N(C)C(=O)C2(CCC2)NC(=O)[C@@H]2C[C@@H](OCC)CN2C(=O)[C@H](CCc2ccc(C(F)(F)F)c(Cl)c2)NC(=O)CN(C)C(=O)[C@@H]1Cc1ccc(C(F)(F)F)cc1` [PP0405] ([NMeL]I[Aze][Sar][NPrPhe(4-CF3)][Sar][hPhe(3-Cl-4-CF3)][Hyp](Et)[Ac4c][NMeGly(cPent)][NMeD]-Morpholide; lactam N-11) was tested, and the “NRAS/KRAS (ratio of KD for GDP-bound NRAS wild-type to KD for KRAS)” value [1] was “B (a compound having 3 or more and less than 10 is denoted as B)” and the “HRAS/KRAS (ratio of KD for GDP-bound HRAS wild-type to KD for KRAS)” value [2] was “C (A compound having a KD ratio of 0.1 or more and less than 3 is denoted as C)”.
With `CCCN1C(=O)[C@@H]2CCN2C(=O)[C@H](C)N(C)C(=O)[C@H]([C@@H](C)CC)NC(=O)[C@H](CC(C)C)N(C)C(=O)C[C@@H](C(=O)N2CCOCC2)N(C)C(=O)[C@H](C2CCCC2)N(C)C(=O)C2(CCC2)NC(=O)[C@@H]2C[C@@H](OCC)CN2C(=O)[C@H](CCc2ccc(C(F)(F)F)c(Cl)c2)NC(=O)CN(C)C(=O)[C@@H]1Cc1ccc(C(F)(F)F)cc1` [PP0406] ([NMeL]I[NMeA][Aze][NPrPhe(4-CF3)][Sar][hPhe(3-Cl-4-CF3)][Hyp](Et)[Ac4c][NMeGly(cPent)][NMeD]-Morpholide; lactam N-11) the “NRAS/KRAS (ratio of KD for GDP-bound NRAS wild-type to KD for KRAS)” value [1] was “C (A compound having a KD ratio of 0.1 or more and less than 3 is denoted as C)” and the “HRAS/KRAS (ratio of KD for GDP-bound HRAS wild-type to KD for KRAS)” value [2] was “B (a compound having 3 or more and less than 10 is denoted as B)”.
For `CCCN1C(=O)[C@@H]2CCN2C(=O)CN(C)C(=O)[C@H]([C@@H](C)CC)NC(=O)[C@H](CC(C)C)N(C)C(=O)C[C@@H](C(=O)N2CCOCC2)N(C)C(=O)[C@H](C2CCCC2)N(C)C(=O)C2(CCC2)NC(=O)[C@@H]2CCCN2C(=O)[C@H](CCc2ccc(C(F)(F)F)c(Cl)c2)NC(=O)CN(C)C(=O)[C@@H]1Cc1ccc(C(F)(F)F)cc1` [PP0407] ([NMeL]I[Sar][Aze][NPrPhe(4-CF3)][Sar][hPhe(3-Cl-4-CF3)]P[Ac4c][NMeGly(cPent)][NMeD]-Morpholide; lactam N-11), the “NRAS/KRAS (ratio of KD for GDP-bound NRAS wild-type to KD for KRAS)” value [1] was “C (A compound having a KD ratio of 0.1 or more and less than 3 is denoted as C)” and the “HRAS/KRAS (ratio of KD for GDP-bound HRAS wild-type to KD for KRAS)” value [2] was “B (a compound having 3 or more and less than 10 is denoted as B)”.
In the case of `CCCN1C(=O)[C@@H]2CCN2C(=O)CN(C)C(=O)[C@H]([C@@H](C)CC)NC(=O)[C@H](CC(C)C)N(C)C(=O)C[C@@H](C(=O)N2CCOCC2)N(C)C(=O)[C@H](C2CCCC2)N(C)C(=O)C2(CCCC2)NC(=O)[C@@H]2CC(F)(F)CN2C(=O)[C@H](CCc2ccc(C(F)(F)F)c(Cl)c2)NC(=O)CN(C)C(=O)[C@@H]1Cc1ccc(C(F)(F)F)cc1` [PP0408] ([NMeL]I[Sar][Aze][NPrPhe(4-CF3)][Sar][hPhe(3-Cl-4-CF3)][Pro(4,4-F2)][Ac5c][NMeGly(cPent)][NMeD]-Morpholide; lactam N-11), the “NRAS/KRAS (ratio of KD for GDP-bound NRAS wild-type to KD for KRAS)” value [1] is reported as “C (A compound having a KD ratio of 0.1 or more and less than 3 is denoted as C)” and the “HRAS/KRAS (ratio of KD for GDP-bound HRAS wild-type to KD for KRAS)” value [2] is reported as “B (a compound having 3 or more and less than 10 is denoted as B)”.
`CCCN1C(=O)[C@@H]2CCN2C(=O)CN(C)C(=O)[C@H]([C@@H](C)CC)NC(=O)[C@H](CC(C)C)N(C)C(=O)C[C@@H](C(=O)N2CCOCC2)N(C)C(=O)[C@H](C2CCCC2)N(C)C(=O)C2(CCC2)NC(=O)[C@@H]2CC(F)(F)CN2C(=O)[C@H](CCc2ccc(C(F)(F)F)c(Cl)c2)NC(=O)CN(C)C(=O)[C@@H]1Cc1ccc(C(F)(F)F)cc1` [PP0409] ([NMeL]I[Sar][Aze][NPrPhe(4-CF3)][Sar][hPhe(3-Cl-4-CF3)][Pro(4,4-F2)][Ac4c][NMeGly(cPent)][NMeD]-Morpholide; lactam N-11) was tested, and the “NRAS/KRAS (ratio of KD value with respect to GDP-bound NRAS wild-type protein to KD value with respect to KRAS)” value [1] was “C (A compound having a KD ratio of 0.1 or more and less than 3 is denoted as C)” and the “HRAS/KRAS (ratio of KD value with respect to GDP-bound HRAS wild-type protein to KD value with respect to KRAS)” value [2] was “C (A compound having a KD ratio of 0.1 or more and less than 3 is denoted as C)”.
With `CCCN1C(=O)[C@@H]2CCN2C(=O)CN(C)C(=O)[C@H]([C@@H](C)CC)NC(=O)[C@H](CC(C)C)N(C)C(=O)C[C@@H](C(=O)N2CCOCC2)N(C)C(=O)[C@H](C2CCCC2)N(C)C(=O)C2(CCCC2)NC(=O)[C@@H]2C[C@@H](OCC)CN2C(=O)[C@H](CCc2ccc(C(F)(F)F)c(Cl)c2)NC(=O)CN(C)C(=O)[C@@H]1Cc1ccc(C(F)(F)F)cc1` [PP0410] ([NMeL]I[Sar][Aze][NPrPhe(4-CF3)][Sar][hPhe(3-Cl-4-CF3)][Hyp](Et)[Ac5c][NMeGly(cPent)][NMeD]-Morpholide; lactam N-11) the “NRAS/KRAS (ratio of KD value with respect to GDP-bound NRAS wild-type protein to KD value with respect to KRAS)” value [1] was “C (A compound having a KD ratio of 0.1 or more and less than 3 is denoted as C)” and the “HRAS/KRAS (ratio of KD value with respect to GDP-bound HRAS wild-type protein to KD value with respect to KRAS)” value [2] was “B (a compound having 3 or more and less than 10 is denoted as B)”.
